# Data from PMC11052077, “Discovery of Dolutegravir Derivative against Liver Cancer via Inducing Autophagy and DNA Damage” (Molecules, 2024).
# Legend:
# Type in all cases: cell-based, human
# [1] = test system: Caspase3; test: Western blot, Caspase3; settings: 2, 4, 8 μM, 48 h, Huh7, western blot
# Procedure: (§1) To elucidate the impact of compounds 5e and 5p on the regulation of cell proliferation, we examined the expression levels of key proteins involved in cell growth processes, encompassing autophagy, apoptosis, cell cycle, and DNA damage (Figure 7).
# (§2) Protein expression levels were measured by western blot. Huh7 cells were cultured in 12-well plates and different concentrations (0, 2, 4, 8 μM) of 5e and 5p were added for 48 h. Proteins were extracted from whole cells using radio-immunoprecipitation assay (RIPA) buffer containing a protease/phosphatase inhibitor cocktail (CST). Then, 10–15% sodium dodecyl sulfate polyacrylamide gel electrophoresis and nitrocellulose membranes (Millipore) were employed to separate and collect proteins. Antibodies used include LC3 (3868s, CST), Caspase3 (9662, CST), cyclin D (2922s, CST), cyclin E (20808s, CST), γH2AX (9718s, CST), β-Catenin (9562s, CST), and β-actin (4967s, CST).
# [2] = test system: LC3; test: Western blot, LC3; settings: 2, 4, 8 μM, 48 h, Huh7, western blot
# Procedure: as §1, §2
# [3] = test system: γ-H2AX in HepG2 cells; test: γ-H2AX immunofluorescence, HepG2; settings: HepG2, 72 h
# Procedure: (§3) The phosphorylation of H2AX serves as a highly specific and sensitive molecular marker for DNA damage. Through Western blotting, we have confirmed that compounds 5e and 5p induce DNA damage in Huh7 and HepG2 cells. To further substantiate the inhibitory effect of compounds 5e and 5p on Huh7 cells, immunofluorescence was employed to assess their correlation with γ-H2AX.
# The HepG2 cells (1 × 10^6) were plated in laser confocal dishes (Nest, Wuxi, China), before Compound 5e and 5p were treated for 72 h. Then, 4% paraformaldehyde was added to each laser confocal dishes for 20 min, after rinsing with PBS. The Triton X-100 was used to penetrate the cells for 20 min. Before the cells were incubated with p-H2AX (Cell Signaling Technology, Danvers, MA, USA) at 1:800 dilution at 4 °C overnight, goat serum was used to block for 30 min. Subsequently, the HepG2 were rinsed with PBS and incubated with Alexa Fluor 488 (Proteintech, Wuhan, China) at a 1:1000 dilution in the dark at room temperature for 1 h. DAPI was added to each laser to stain the cell nucleus for 5 min. Then, the cells were observed under a laser confocal microscope (Nikon, Tokyo, Japan), after rinsing with PBS.
# [4] = test system: γ-H2AX in Huh7 cells; test: γ-H2AX immunofluorescence / DNA damage staining, Huh7; settings: Huh7, 5, 10, 20 μM, 24 h
# Procedure: as §3
# The Huh7 cells with a density of 5 × 10^3 cells per well were seeded in a 96-well plate for overnight incubation. Then, different concentrations (0, 5 μM, 10 μM, 20 μM) of the compounds 5e and 5p were added to cells for 24 h. A DNA damage detection kit was used to dye the cells, and cells were observed and photographed by a fluorescent microscope. Cell nucleus is stained blue, and DNA damage is shown as green fluorescence.
structure (smiles),measurement,setting,value
COc1c2n(cc(C(=O)Nc3cccc(-c4cn(-c5cccc(C(F)(F)F)c5)nn4)c3)c1=O)CC1OCCC(C)N1C2=O (stereo not shown) [Compound 5p],Caspase3 protein expression,[1],remained unchanged
same,LC3 protein expression,[2],significant increase in expression
same,γ-H2AX expression by immunofluorescence,[3],increased the expression of γ-H2AX
same,γ-H2AX expression by immunofluorescence,[4],increased the expression of γ-H2AX
